Measurements as given in US11739100B2, “2,3-dihydro-1h-imidazo{1,2-a}pyrimidin-5-one and this 1,2,3,4-tetrahydropyrimido{1,2-a}pyrimidin-6-one derivatives comprising a substituted morpholine, preparation thereof and pharmaceutical use thereof” (SANOFI, priority 2012, dated 2023).

Target: T1, recombinant Vps34 (Homo sapiens, UniProt Q8NEB9)
T1 construct: purchased Invitrogen PV5126
Assay: Phosphorylation of phosphatidylinositol (PI) by Vps34 in vitro, ADP detected by TR-FRET (HTRF Transcreener ADP)
Type: biochemical
Conditions: 10 μM ATP, 55 μg/ml PI, approximately 3 nM Vps34, 1 hour at ambient temperature; absolute IC50, mean of two independent experiments; read-out: IC50 activity range

T1 sequence (Q8NEB9 whole entry): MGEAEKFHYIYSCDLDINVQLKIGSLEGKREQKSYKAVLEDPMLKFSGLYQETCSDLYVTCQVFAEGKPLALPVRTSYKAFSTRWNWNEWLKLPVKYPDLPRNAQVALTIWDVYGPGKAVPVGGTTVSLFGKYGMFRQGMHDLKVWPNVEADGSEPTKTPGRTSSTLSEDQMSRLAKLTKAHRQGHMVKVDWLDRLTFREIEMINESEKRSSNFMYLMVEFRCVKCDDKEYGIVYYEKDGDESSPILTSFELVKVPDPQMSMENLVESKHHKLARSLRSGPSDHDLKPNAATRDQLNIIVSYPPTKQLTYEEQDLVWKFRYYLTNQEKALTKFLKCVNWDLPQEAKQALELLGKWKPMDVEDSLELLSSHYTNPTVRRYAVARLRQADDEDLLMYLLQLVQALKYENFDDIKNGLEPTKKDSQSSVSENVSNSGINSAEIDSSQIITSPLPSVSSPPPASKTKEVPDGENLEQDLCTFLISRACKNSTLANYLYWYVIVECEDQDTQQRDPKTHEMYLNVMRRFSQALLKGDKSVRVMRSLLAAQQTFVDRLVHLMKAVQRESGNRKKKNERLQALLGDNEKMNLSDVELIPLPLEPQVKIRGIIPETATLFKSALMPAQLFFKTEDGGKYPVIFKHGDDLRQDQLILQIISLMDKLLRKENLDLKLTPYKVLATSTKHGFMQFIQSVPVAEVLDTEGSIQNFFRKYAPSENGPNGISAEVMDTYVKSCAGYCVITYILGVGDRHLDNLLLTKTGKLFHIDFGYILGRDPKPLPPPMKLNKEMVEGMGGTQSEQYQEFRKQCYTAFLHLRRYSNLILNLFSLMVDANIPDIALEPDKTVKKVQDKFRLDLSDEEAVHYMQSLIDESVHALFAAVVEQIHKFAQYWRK

| SMILES | IC50 [nM] |
| --- | --- |
| COc1cc(N2c3nc(N4CCOC[C@H]4C)c(F)c(=O)n3CC[C@H]2C(F)(F)F)ccn1 [Example 40, (S)-3-Fluoro-9-(2-methoxypyridin-4-yl)-2-((R)-3-Methyl-morpholin-4-yl)-8-trifluoromethyl-6,7,8,9-tetrahydro-pyrimido[1,2-a]-pyrimidin-4-one] | < 10 |
| C[C@@H]1COCCN1c1nc2n(c(=O)c1F)CC[C@@H](C(F)(F)F)N2Cc1nc(C2CC2)no1 [Example 249, (S)-9-(3-Cyclopropyl-[1,2,4]oxadiazol-5-yl-methyl)-3-fluoro-2-((R)-3-methyl-morpholin-4-yl)-8-trifluoromethyl-6,7,8,9-tetrahydro-pyrimido[1,2-a]-pyrimidin-4-one] | < 10 |
| C[C@@H]1COCCN1c1nc2n(c(=O)c1F)[C@@H](C(F)(F)F)CCN2c1ccc(C(F)F)nc1 [Example 121, (R)-9-(6-Difluoromethylpyridin-3-yl)-3-fluoro-2-((R)-3-methylmorpholin-4-yl)-6-trifluoromethyl-6,7,8,9-tetrahydro-pyrimido[1,2-a]-pyrimidin-4-one] | < 10 |
| C[C@@H]1COCCN1c1nc2n(c(=O)c1F)CC[C@@H](C(F)(F)F)N2Cc1ncco1 [Example 42, (S)-3-Fluoro-2-((R)-3-methylmorpholin-4-yl)-9-oxazol-2-ylmethyl-8-trifluoromethyl-6,7,8,9-tetrahydro-pyrimido[1,2-a]-pyrimidin-4-one] | < 10 |
| C[C@@H]1COCCN1c1nc2n(c(=O)c1F)CC[C@@H](C(F)(F)F)N2Cc1nc(C(F)(F)F)no1 [Example 251, (S)-3-Fluoro-2-((R)-3-methylmorpholin-4-yl)-8-trifluoromethyl-9-(3-trifluoromethyl-[1,2,4]oxadiazol-5-yl-methyl)-6,7,8,9-tetrahydro-pyrimido[1,2-a]-pyrimidin-4-one] | < 10 |
| Cc1cc(C(=O)CN2c3nc(N4CCOC[C@H]4C)c(F)c(=O)n3CC[C@H]2C(F)(F)F)no1 [Example 294, (S)-3-Fluoro-9-[2-(5-methylisoxazol-3-yl)-2-oxoethyl]-2-((R)-3-methylmorpholin-4-yl)-8-trifluoromethyl-6,7,8,9-tetrahydro-pyrimido[1,2-a]-pyrimidin-4-one] | < 10 |
| CC(C)C(=O)CN1c2nc(N3CCOC[C@@H]3C)c(F)c(=O)n2CC[C@H]1C(F)(F)F [Example 278, (S)-3-Fluoro-2-((S)-3-methylmorpholin-4-yl)-9-(3-methyl-2-oxo-butyl)-8-trifluoromethyl-6,7,8,9-tetrahydro-pyrimido[1,2-a]-pyrimidin-4-one] | > 100 |

Next, values leading:

| IC50 [nM] | SMILES |
| --- | --- |
| < 10 | C[C@@H]1COCCN1c1cc(=O)n2c(n1)N(CC(=O)C1CCOCC1)CC[C@@H]2C(F)(F)F [Example 131, (R)-2-((R)-3-Methyl-morpholin-4-yl)-9-[2-oxo-2-(tetrahydro-pyran-4-yl)ethyl]-6-trifluoromethyl-6,7,8,9-tetrahydro-pyrimido[1,2-a]-pyrimidin-4-one] |
| 10 to 100 | C[C@H]1COCCN1c1nc2n(c(=O)c1F)CC[C@@H](C(F)(F)F)N2CC(=O)C1CC1 [Example 321, (S)-9-(2-Cyclopropyl-2-oxoethyl)-3-fluoro-2-((S)-3-methyl-morpholin-4-yl)-8-trifluoromethyl-6,7,8,9-tetrahydropyrimido-[1,2-a]pyrimidin-4-one] |
| < 10 | CC(C)Oc1ccc(CN2c3nc(N4CCOC[C@H]4C)cc(=O)n3CC[C@H]2C(F)(F)F)cn1 [Example 229, (S)-9-(6-Isopropoxy-pyridin-3-ylmethyl)-2-((R)-3-methyl-morpholin-4-yl)-8-trifluoromethyl-6,7,8,9-tetrahydro-pyrimido[1,2-a]-pyrimidin-4-one] |
| > 100 | C[C@@H]1COCCN1c1cc(=O)n2c(n1)N(CC(N)=O)[C@H](C(F)(F)F)CC2 [Example 263, 2-[(S)-8-((R)-3-Methyl-morpholin-4-yl)-6-oxo-2-trifluoromethyl-3,4-dihydro-2H,6H-pyrimido[1,2-a]-pyrimidin-1-yl]-acetamide] |
| < 10 | C[C@@H]1COCCN1c1cc(=O)n2c(n1)N(CC(=O)N1CCCCC1)[C@H](C(F)(F)F)CC2 [Example 233, (S)-2-((R)-3-Methyl-morpholin-4-yl)-9-(2-oxo-2-piperidin-1-yl-ethyl)-8-trifluoromethyl-6,7,8,9-tetrahydro-pyrimido[1,2-a]-pyrimidin-4-one] |
| < 10 | COCCN1c2nc(N3CCOC[C@H]3C)cc(=O)n2CC[C@H]1C(F)(F)F [Example 90, (S)-9-(2-Methoxy-ethyl)-2-((R)-3-methyl-morpholin-4-yl)-8-trifluoromethyl-6,7,8,9-tetrahydro-pyrimido[1,2-a]-pyrimidin-4-one] |
